Test results reported in patent US11447503B2, “Pyridine carbamates and their use as GLUN2B receptor modulators” (JANSSEN PHARMACEUTICA NV, priority 2019, dated 2022).

What follows are compounds tested against human GluN1/GluN2B NMDA receptors (Homo sapiens, UniProt Q05586+Q13224) (assay: Cell-based calcium flux (FLIPR) assay on cloned human GluN1/GluN2B ion channels expressed in mammalian cells). Settings: standard assay; glutamate ~EC40, 10 μM glycine; stable Tet-On cell line.
human GluN1/GluN2B NMDA receptors, sequence (Q13224 27-1484, other chains not shown): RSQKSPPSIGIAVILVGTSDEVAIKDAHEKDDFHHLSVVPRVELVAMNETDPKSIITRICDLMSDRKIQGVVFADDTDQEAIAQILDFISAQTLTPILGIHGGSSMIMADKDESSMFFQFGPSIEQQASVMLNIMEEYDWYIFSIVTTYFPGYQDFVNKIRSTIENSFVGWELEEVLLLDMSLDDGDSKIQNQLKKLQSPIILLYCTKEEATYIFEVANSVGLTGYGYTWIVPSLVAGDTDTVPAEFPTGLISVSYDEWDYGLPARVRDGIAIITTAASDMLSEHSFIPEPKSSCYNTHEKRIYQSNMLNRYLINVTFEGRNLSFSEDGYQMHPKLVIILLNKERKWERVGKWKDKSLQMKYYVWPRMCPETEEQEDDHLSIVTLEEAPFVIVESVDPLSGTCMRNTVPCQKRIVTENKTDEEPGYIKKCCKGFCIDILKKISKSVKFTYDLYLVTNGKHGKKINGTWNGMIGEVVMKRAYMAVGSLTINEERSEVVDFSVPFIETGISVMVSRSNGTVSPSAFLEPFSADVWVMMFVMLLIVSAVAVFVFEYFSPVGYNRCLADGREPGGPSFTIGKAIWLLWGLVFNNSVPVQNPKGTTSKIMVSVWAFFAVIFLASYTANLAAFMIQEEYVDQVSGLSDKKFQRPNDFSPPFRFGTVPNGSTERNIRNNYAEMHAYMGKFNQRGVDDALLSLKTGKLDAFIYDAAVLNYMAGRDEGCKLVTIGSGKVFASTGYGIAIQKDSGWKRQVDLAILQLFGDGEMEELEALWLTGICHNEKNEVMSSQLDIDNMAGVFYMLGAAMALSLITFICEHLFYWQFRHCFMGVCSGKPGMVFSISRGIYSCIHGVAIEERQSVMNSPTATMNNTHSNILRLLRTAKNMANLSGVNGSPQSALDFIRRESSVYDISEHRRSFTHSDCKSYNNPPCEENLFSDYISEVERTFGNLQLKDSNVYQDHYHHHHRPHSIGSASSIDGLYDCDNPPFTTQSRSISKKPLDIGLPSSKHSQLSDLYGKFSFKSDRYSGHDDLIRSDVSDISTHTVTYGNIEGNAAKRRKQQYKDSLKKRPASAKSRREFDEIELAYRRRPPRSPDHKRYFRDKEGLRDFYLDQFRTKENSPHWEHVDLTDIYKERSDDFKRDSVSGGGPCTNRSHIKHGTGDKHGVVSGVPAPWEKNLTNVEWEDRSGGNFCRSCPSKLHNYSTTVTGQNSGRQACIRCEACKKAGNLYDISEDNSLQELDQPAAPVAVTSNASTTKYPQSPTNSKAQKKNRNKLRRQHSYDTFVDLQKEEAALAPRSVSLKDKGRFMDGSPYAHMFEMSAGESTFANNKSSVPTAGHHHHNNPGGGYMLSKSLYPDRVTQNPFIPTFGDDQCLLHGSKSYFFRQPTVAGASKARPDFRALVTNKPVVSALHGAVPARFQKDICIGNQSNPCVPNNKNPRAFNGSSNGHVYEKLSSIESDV
Description: 5.3. Biological Assays: Effect of Compounds of Formula (I) on Cloned Human GluN1/GluN2B Ion Channels Expressed in Mammalian Cells
NMDA receptors are ion channels that are highly permeable to Ca^2+ ions, rendering it possible to monitor NMDA receptor function using cell-based calcium flux assay. In this assay, co-agonists glutamate and glycine are added to cells heterologously expressing human GluN1/GluN2B NMDA receptors to initiate cellular Ca^2+ influx. The time course of the changes in intracellular calcium is measured using a fluorescent dye and a FLIPR (Fluorometric Imaging Plate Reader) device.
Twenty four hours before measurements, the expression of the NMDA receptors in the stable cell line is induced with Tet-On inducible system in the presence of a non-selective NMDA receptor blocker. On the day of the experiment, cell culture media is carefully washed and the cells are loaded with Calcium 5 Dye Kit (Molecular Devices) in dye loading buffer containing 137 mM NaCl, 4 mM KCl, 2 mM CaCl2, 0.5 mM MgCl2 (standard assay) or 1.5 mM MgCl2 (HTS assay), 10 mM HEPES and 5 mM D-glucose; pH 7.4. After 1 h incubation at the room temperature, the dye is washed away with the assay buffer (137 mM NaCl (standard assay) or 150 mM (HTS assay), 4 mM KCl (standard assay) or 3 mM (HTS assay), 2 mM CaCl2, 0.01 mM EDTA, 10 mM HEPES and 5 mM D-glucose; pH 7.4) In the FLIPR TETRA reader, various concentrations of the test compounds are added to the cells for 5 min while fluorescence is monitored to detect potential agonist activity. Next, co-agonists, glutamate and glycine are added for another 5 minutes. The concentration of glutamate corresponding to ˜EC40 (standard assay) or EC40 (HTS assay) is used to maximize the assay's signal window and ability to detect NMDA receptor antagonists and negative allosteric modulators. A saturating concentration (10 μM) of glycine is also present in the assay. A non-selective NMDA receptor antagonist, (+)MK-801 is used as a positive control for antagonist activity. The fluorescent signal in the presence of test compounds is quantified and normalized to the signal defined by the appropriate control wells.
`CC1COC(=O)N1Cc1cncc(-c2ccc(F)c(OC(F)F)c2)c1` (racemic) [Example 5, (R/S)-3-[[5-[3-(Difluoromethoxy)-4-fluoro-phenyl]-3-pyridyl]methyl]-4-methyl-oxazolidin-2-one] gave an IC50 of 20 nM.
`CC1CN(Cc2cncc(-c3ccc(F)c(OC(F)F)c3)c2)C(=O)O1` (racemic) [Example 6, (R/S)-3-[[5-[3-(Difluoromethoxy)-4-fluoro-phenyl]-3-pyridyl]methyl]-5-methyl-oxazolidin-2-one] gave an IC50 of 15 nM.
In the case of `CC(C)C1CN(Cc2cncc(-c3ccc(F)c(OC(F)F)c3)c2)C(=O)O1` (racemic) [Example 14, (R/S)-3-[[5-[3-(Difluoromethoxy)-4-fluoro-phenyl]-3-pyridyl]methyl]-5-isopropyl-oxazolidin-2-one], the IC50 is reported as 97 nM.
`CC1COC(=O)N1Cc1cncc(-c2ccc(F)c(C(F)F)c2)c1` (racemic) [Example 25, (R/S)-3-[[5-[3-(Difluoromethyl)-4-fluoro-phenyl]-3-pyridyl]methyl]-4-methyl-oxazolidin-2-one] showed an IC50 of 31 nM.
For `CC1CN(Cc2cncc(-c3ccc(F)c(C(F)F)c3)c2)C(=O)O1` (racemic) [Example 26, (R/S)-3-[[5-[3-(Difluoromethyl)-4-fluoro-phenyl]-3-pyridyl]methyl]-5-methyl-oxazolidin-2-one], the IC50 was 28 nM.
For `CC(C)C1CN(Cc2cncc(-c3ccc(F)c(C(F)F)c3)c2)C(=O)O1` (racemic) [Example 35, (R/S)-3-[[5-[3-(Difluoromethyl)-4-fluoro-phenyl]-3-pyridyl]methyl]-5-isopropyl-oxazolidin-2-one], the IC50 was 29 nM.
`CC(c1cncc(-c2ccc(F)c(C(F)F)c2)c1)N1CCCOC1=O` (racemic) [Example 61, (R/S)-3-[1-[5-[3-(difluoromethyl)-4-fluoro-phenyl]-3-pyridyl]ethyl]-1,3-oxazinan-2-one] gave an IC50 of 323 nM.
Compound `Cc1ncc(-c2ccc(F)c(OC(F)F)c2)cc1CN1CC(C)OC1=O` (racemic) [Example 80, (R/S)-3-[[5-[3-(Difluoromethoxy)-4-fluoro-phenyl]-2-methyl-3-pyridyl]methyl]-5-methyl-oxazolidin-2-one] has an IC50 of 22 nM.
Compound `Cc1ncc(-c2ccc(F)c(OC(F)F)c2)cc1CN1C(=O)OCC1C` (racemic) [Example 81, (R/S)-3-[[5-[3-(Difluoromethoxy)-4-fluoro-phenyl]-2-methyl-3-pyridyl]methyl]-4-methyl-oxazolidin-2-one] has an IC50 of 79 nM.
In the case of `Cc1ncc(-c2ccc(F)c(C(F)F)c2)cc1CN1CC(C)OC1=O` (racemic) [Example 94, (R/S)-3-[[5-[3-(Difluoromethyl)-4-fluoro-phenyl]-2-methyl-3-pyridyl]methyl]-5-methyl-oxazolidin-2-one], the IC50 is reported as 21 nM.
`Cc1ncc(-c2ccc(F)c(C(F)F)c2)cc1CN1C(=O)OCC1C` (racemic) [Example 95, (R/S)-3-[[5-[3-(difluoromethyl)-4-fluoro-phenyl]-2-methyl-3-pyridyl]methyl]-4-methyl-oxazolidin-2-one] gave an IC50 of 113 nM.
Work on `CC1CN(Cc2cncc(-c3ccc(F)c(OC(F)F)c3)c2)C(=O)O1` (single isomer, unassigned) [Example 7, (S*)-3-[[5-[3-(Difluoromethoxy)-4-fluoro-phenyl]-3-pyridyl]methyl]-5-methyl-oxazolidin-2-one] yielded an IC50 of 17 nM.
With `CC1CN(Cc2cncc(-c3ccc(F)c(OC(F)F)c3)c2)C(=O)O1` (single isomer, unassigned) [Example 8, (R*)-3-[[5-[3-(Difluoromethoxy)-4-fluoro-phenyl]-3-pyridyl]methyl]-5-methyl-oxazolidin-2-one] the IC50 was 11 nM.
In the case of `CC(C)C1CN(Cc2cncc(-c3ccc(F)c(OC(F)F)c3)c2)C(=O)O1` (single isomer, unassigned) [Example 15, (R*)-3-[[5-[3-(Difluoromethoxy)-4-fluoro-phenyl]-3-pyridyl]methyl]-5-isopropyl-oxazolidin-2-one], the IC50 is reported as 45 nM.
`CC(C)C1CN(Cc2cncc(-c3ccc(F)c(OC(F)F)c3)c2)C(=O)O1` (single isomer, unassigned) [Example 16, (S*)-3-[[5-[3-(Difluoromethoxy)-4-fluoro-phenyl]-3-pyridyl]methyl]-5-isopropyl-oxazolidin-2-one] was tested, and the IC50 was 52 nM.
For `O=C1OC(CN2CCOCC2)CN1Cc1cncc(-c2ccc(F)c(OC(F)F)c2)c1` (single isomer, unassigned) [Example 18, (R*)-3-[[5-[3-(Difluoromethoxy)-4-fluoro-phenyl]-3-pyridyl]methyl]-5-(morpholinomethyl)oxazolidin-2-one], the IC50 was 751 nM.
Compound `O=C1OC(CN2CCOCC2)CN1Cc1cncc(-c2ccc(F)c(OC(F)F)c2)c1` (single isomer, unassigned) [Example 19, (S*)-3-[[5-[3-(Difluoromethoxy)-4-fluoro-phenyl]-3-pyridyl]methyl]-5-(morpholinomethyl)oxazolidin-2-one] has an IC50 of 1350 nM.
`C[C@@H]1CN(Cc2cncc(-c3ccc(F)c(C(F)F)c3)c2)C(=O)O1` (single isomer, unassigned) [Example 28, (R*)-3-[[5-[3-(Difluoromethyl)-4-fluoro-phenyl]-3-pyridyl]methyl]-5-methyl-oxazolidin-2-one] was tested, and the IC50 was 14 nM.
For `CC(C)C1CN(Cc2cncc(-c3ccc(F)c(C(F)F)c3)c2)C(=O)O1` (single isomer, unassigned) [Example 36, (R*)-3-[[5-[3-(Difluoromethyl)-4-fluoro-phenyl]-3-pyridyl]methyl]-5-isopropyl-oxazolidin-2-one], the IC50 was 31 nM.
Work on `CC(C)C1CN(Cc2cncc(-c3ccc(F)c(C(F)F)c3)c2)C(=O)O1` (single isomer, unassigned) [Example 37, (S*)-3-[[5-[3-(Difluoromethyl)-4-fluoro-phenyl]-3-pyridyl]methyl]-5-isopropyl-oxazolidin-2-one] yielded an IC50 of 50 nM.
With `O=C1OC(CN2CCOCC2)CN1Cc1cncc(-c2ccc(F)c(C(F)F)c2)c1` (single isomer, unassigned) [Example 40, (R*)-3-[[5-[3-(Difluoromethyl)-4-fluoro-phenyl]-3-pyridyl]methyl]-5-(morpholinomethyl)oxazolidin-2-one] the IC50 was 205 nM.
For `O=C1OC(CN2CCOCC2)CN1Cc1cncc(-c2ccc(F)c(C(F)F)c2)c1` (single isomer, unassigned) [Example 41, (S*)-3-[[5-[3-(Difluoromethyl)-4-fluoro-phenyl]-3-pyridyl]methyl]-5-(morpholinomethyl)oxazolidin-2-one], the IC50 was 751 nM.
In the case of `Cc1ncc(-c2ccc(F)c(OC(F)F)c2)cc1CN1C(=O)OCC1C` (single isomer, unassigned) [Example 82, (R*)-3-[[5-[3-(Difluoromethoxy)-4-fluoro-phenyl]-2-methyl-3-pyridyl]methyl]-4-methyl-oxazolidin-2-one], the IC50 is reported as 66 nM.
With `Cc1ncc(-c2ccc(F)c(OC(F)F)c2)cc1CN1C(=O)OCC1C` (single isomer, unassigned) [Example 83, (S*)-3-[[5-[3-(Difluoromethoxy)-4-fluoro-phenyl]-2-methyl-3-pyridyl]methyl]-4-methyl-oxazolidin-2-one] the IC50 was 30 nM.
With `Cc1ncc(-c2ccc(F)c(OC(F)F)c2)cc1CN1CC(C)OC1=O` (stereo in doubt) [Example 86, (5R)-3-[[5-[3-(Difluoromethoxy)-4-fluoro-phenyl]-2-methyl-3-pyridyl]methyl]-5-methyl-oxazolidin-2-one] the IC50 was 20 nM.
`O=C1OCCN1Cc1cncc(-c2ccc(F)c(OC(F)F)c2)c1` [Example 2, 3-[[5-[3-(Difluoromethoxy)-4-fluoro-phenyl]-3-pyridyl]methyl]oxazolidin-2-one] showed an IC50 of 12 nM.
`CC(C)[C@H]1COC(=O)N1Cc1cncc(-c2ccc(F)c(OC(F)F)c2)c1` [Example 3, (4S)-3-[[5-[3-(Difluoromethoxy)-4-fluoro-phenyl]-3-pyridyl]methyl]-4-isopropyl-oxazolidin-2-one] showed an IC50 of 3010 nM.
Work on `O=C1OCc2ccccc2N1Cc1cncc(-c2ccc(F)c(OC(F)F)c2)c1` [Example 4, 1-[[5-[3-(Difluoromethoxy)-4-fluoro-phenyl]-3-pyridyl]methyl]-4H-3,1-benzoxazin-2-one] yielded an IC50 of 123 nM.
`O=C1OC2(CC2)CN1Cc1cncc(-c2ccc(F)c(OC(F)F)c2)c1` [Example 9, 5-[[5-[3-(Difluoromethoxy)-4-fluoro-phenyl]-3-pyridyl]methyl]-7-oxa-5-azaspiro[2.4]heptan-6-one] showed an IC50 of 12 nM.
`CC1(C)CCN(Cc2cncc(-c3ccc(F)c(OC(F)F)c3)c2)C(=O)O1` [Example 10, 3-[[5-[3-(Difluoromethoxy)-4-fluoro-phenyl]-3-pyridyl]methyl]-6,6-dimethyl-1,3-oxazinan-2-one] was tested, and the IC50 was 521 nM.
